# Reference: US10829452B2, “Histone methyltransferase inhibitors” (GLOBAL BLOOD THERAPEUTICS, INC., priority 2016, dated 2020)
# Counter-ions that a name gives are not always drawn.
# Biological target: T1, G9a (Homo sapiens, UniProt Q96KQ7)
# T1 sequence (Q96KQ7 1-1210): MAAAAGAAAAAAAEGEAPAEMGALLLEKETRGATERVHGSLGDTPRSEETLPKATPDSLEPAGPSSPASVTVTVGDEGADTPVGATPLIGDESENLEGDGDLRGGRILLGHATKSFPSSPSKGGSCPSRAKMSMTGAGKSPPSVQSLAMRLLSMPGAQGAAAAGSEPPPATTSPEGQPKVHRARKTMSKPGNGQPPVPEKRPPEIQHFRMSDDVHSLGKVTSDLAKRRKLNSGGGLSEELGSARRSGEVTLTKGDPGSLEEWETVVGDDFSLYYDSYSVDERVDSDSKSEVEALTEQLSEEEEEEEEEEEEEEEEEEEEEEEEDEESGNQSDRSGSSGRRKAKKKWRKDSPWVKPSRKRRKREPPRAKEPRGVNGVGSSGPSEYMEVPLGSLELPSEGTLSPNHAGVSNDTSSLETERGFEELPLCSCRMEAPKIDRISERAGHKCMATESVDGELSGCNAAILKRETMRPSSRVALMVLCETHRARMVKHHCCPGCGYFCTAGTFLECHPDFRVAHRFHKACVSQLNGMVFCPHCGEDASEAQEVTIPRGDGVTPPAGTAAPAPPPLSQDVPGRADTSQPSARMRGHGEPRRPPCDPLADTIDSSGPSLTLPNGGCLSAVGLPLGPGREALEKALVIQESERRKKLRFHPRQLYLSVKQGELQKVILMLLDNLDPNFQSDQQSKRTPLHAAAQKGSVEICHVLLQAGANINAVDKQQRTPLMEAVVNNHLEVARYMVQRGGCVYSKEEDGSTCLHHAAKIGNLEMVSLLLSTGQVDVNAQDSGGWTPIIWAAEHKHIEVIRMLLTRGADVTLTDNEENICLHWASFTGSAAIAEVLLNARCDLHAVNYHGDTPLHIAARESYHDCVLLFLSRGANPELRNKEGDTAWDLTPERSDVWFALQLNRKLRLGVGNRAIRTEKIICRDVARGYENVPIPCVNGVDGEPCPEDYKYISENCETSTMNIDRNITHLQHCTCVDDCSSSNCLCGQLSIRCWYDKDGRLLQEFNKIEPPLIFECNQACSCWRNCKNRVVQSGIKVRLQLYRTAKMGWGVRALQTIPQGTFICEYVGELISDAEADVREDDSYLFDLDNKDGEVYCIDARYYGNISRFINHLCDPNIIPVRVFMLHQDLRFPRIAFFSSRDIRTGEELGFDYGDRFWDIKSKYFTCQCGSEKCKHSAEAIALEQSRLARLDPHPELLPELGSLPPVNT
# Test: G9a AlphaLISA enzymatic activity assay
# Format: biochemical
# Details: 0.15 nM G9a, 15 uM S-adenosyl-methionine, 100 nM biotinylated histone 3 peptide (1-21), 1 hour at room temperature; read-out: G9a in (uM) (IC50, concentration that produced 50% inhibition)
# Excerpt: The G9a AlphaLISA assay was used to detect the methyl modifications of a biotinylated histone H3 peptide by the compounds. These modifications are done by the histone methyl transferase activity of the G9a enzyme. The assay consists of reading a chemiluminescent signal at 615 nm; this signal is generated by a laser excitation at 680 nm that transfers a reactive singlet oxygen between the donor beads and acceptor beads. Donor beads are streptavidin conjugated and bind to the biotin on the peptide. Acceptor beads are conjugated with an antibody that recognizes the specific G9a methyl mark on the peptide. If there is a methyl mark on the peptide, the acceptor beads will bind to the peptide. Upon binding, the acceptor beads will be in close proximity (<200 nm) of the donor beads and when the donor beads are excited, the transfer of the oxygen can occur and a strong signal will be generated. If there is no methyl mark, the interaction between beads will not occur and signal will be at background levels.
# For the assay, the following buffer was used to set up reactions: 50 mM Tris-HCl pH9, 50 mM NaCl, 0.01% Tween-20 and 1 mM DTT (added fresh prior to starting the reactions). The assay is set up by adding a final concentration of 0.15 nM G9a, 15 uM S-adenosyl-methionine and, 100 nM biotinylated histone 3 peptide (1-21). The reaction is incubated at room temperature for 1 hour, and subsequently quenched by the addition of the acceptor beads (anti-H3k9me2 AlphaLISA acceptor beads, PerkinElmer # AL117) at a final concentration of 20 ug/mL. The acceptor beads are incubated for 1 hour. After 1 hour, the donor beads are added at a final concentration of 20 ug/mL (Alpha Streptavidin donor beads, PerkinElmer #6760002). Donor beads are incubated for 0.5 hours. Both donor and acceptor beads are resuspended in AlphaLISA 5X Epigenetics Buffer 1 Kit (PerkinElmer # AL008) prior to addition to the reaction. All manipulations and incubations with the donor and acceptor beads are done in subdued light. Signal is detected in an EnVision plate reader in Alpha mode (see ACS Med Chem Lett. 2014 Jan. 2; 5(2):205-9. doi: 10.1021/m1400496h. eCollection 2014. Discovery and development of potent and selective inhibitors of histone methyltransferase g9a.)
# Percent inhibition was calculated for each compound dilution and the concentration that produced 50% inhibition was calculated. This value is presented as the IC50.
row,SMILES,IC50
1,"COc1cc2c3c(c(NC(C)(C)C)nc2cc1OCCCN1CCCC1)CCC3 [Example 94, N-tert-butyl-8-methoxy-7-[3-(pyrrolidin-1-yl)propoxy]-1H,2H,3H-cyclopenta[c]quinolin-4-amine formate]",1.4 µM
2,"COc1cc2c3c(c(C4CC4)nc2cc1OCCCN1CCCC1)CCC(C)N3 (stereo not drawn) [Example 32, 1-[3-({5-cyclopropyl-9-methoxy-2-methyl-1H,2H,3H,4H-benzo[h]1,6-naphthyridin-8-yl}oxy)propyl]pyrrolidine trifluoroacetate]",0.022 µM
3,"COc1cc2c3c(c(NCC(F)(F)F)nc2cc1OCCCN1CCCC1)CCC3 [Example 65, 8-methoxy-7-[3-(pyrrolidin-1-yl)propoxy]-N-(2,2,2-trifluoroethyl)-1H,2H,3H-cyclopenta[c]quinolin-4-amine formate]",0.74 µM
4,"COc1cc2c3c(c(NC4CCOCC4)nc2cc1OCCCN1CCCC1)CCCC3 [Example 12, 2-methoxy-N-(oxan-4-yl)-3-[3-(pyrrolidin-1-yl)propoxy]-7,8,9,10-tetrahydrophenanthridin-6-amine trifluoroacetate]",0.52 µM
5,"COc1cc2c3c(c(NC4COC4)nc2cc1OCCCN1CCCC1)CCC3 [Example 44, 8-methoxy-N-(oxetan-3-yl)-'7-[3-(pyrrolidin-1-yl)propoxy]-1H,2H,3H-cyclopenta[c]quinolin-4-amine formate]",5.8 µM
6,"CC[C@H](C)Nc1nc2cc(OCCCN3CCCC3)c(OC)cc2c2c1CCC2 [Example 99, N-[(2S)-butan-2-yl]-8-methoxy-7-[3-(pyrrolidin-1-yl)propoxy]-1H,2H,3H-cyclopenta[c]quinolin-4-amine formate]",0.023 µM
7,"COc1cc2c3c(c(NCC4CC4)nc2cc1OCCCN1CCCC1)CCC3 [Example 108, N-(cyclopropylmethyl)-8-methoxy-7-[3-(pyrrolidin-1-yl)propoxy]-1H,2H,3H-cyclopenta[c]quinolin-4-amine trifluoroacetate]",0.037 µM
8,"CNc1nc2cc(OCCCN3CCCC3)c(OC)cc2c2c1CC(C)(C)N2 [Example 24, 8-methoxy-N,2,2-trimethyl-7-[3-(pyrrolidin-1-yl)propoxy]-1H,2H,3H-pyrrolo[3,2-c]quinolin-4-amine trifluoroacetate]",0.006 µM
9,"COc1cc2c3c(c(C(C)C)nc2cc1OCCCN1CCCC1)CCCCN3 [Example 81, 1-(3-{[10-methoxy-6-(propan-2-yl)-1H,2H,3H,4H,5H-azepino[3,2-c]quinolin-9-yl]oxy}propyl)pyrrolidine trifluoroacetate]",0.009 µM
10,"CCN(CC)CCCOc1cc2nc(NC(C)C)c3c(c2cc1OC)CCC3 [Example 93, 7-[3-(diethylamino)propoxy]-8-methoxy-N-(propan-2-yl)-1H,2H,3H-cyclopenta[c]quinolin-4-amine formate]",0.39 µM
11,"COc1cc2c3c(c(NC(C)C)nc2cc1OCCCN1CCCC1)CC(C)(C)C3 [Example 54, 8-methoxy-2,2-dimethyl-N-(propan-2-yl)-7-[3-(pyrrolidin-1-yl)propoxy]-1H,2H,3H-cyclopenta[c]quinolin-4-amine formate]",0.048 µM
12,"COc1cc2c3c(c(NC4CCN(C(C)C)CC4)nc2cc1OCCCN1CCCC1)CCCC3 [Example 39, 2-methoxy-N-[1-(propan-2-yl)piperidin-4-yl]-3-[3-(pyrrolidin-1-yl)propoxy]-7,8,9,10-tetrahydrophenanthridin-6-amine trifluoroacetate]",3 µM
13,"COc1cc2c3c(c(N[C@H]4CCOC4)nc2cc1OCCCN1CCCC1)CCC3 [Example 18, 8-methoxy-N-[(3S)-oxolan-3-yl]-7-[3-(pyrrolidin-1-yl)propoxy]-1H,2H,3H-cyclopenta[c]quinolin-4-amine formate]",0.11 µM
14,"CNc1nc2cc(OCCCN3CCCC3)c(OC)cc2c2c1COCC2 [Example 57, 9-methoxy-N-methyl-8-[3-(pyrrolidin-1-yl)propoxy]-1H,2H,4H-pyrano[3,4-c]quinolin-5-amine formate]",0.21 µM
15,"CNc1nc2cc(OCCCN3CCCC3)c(OC)cc2c2c1CCCC2 [Example 2, 2-methoxy-N-methyl-3-[3-(pyrrolidin-1-yl)propoxy]-7,8,9,10-tetrahydrophenanthridin-6-amine formate]",0.029 µM
16,"CNc1nc2cc(OCCCN3CCCC3)c(OC)cc2c2c1CC(C)(C)C2 [Example 53, 8-methoxy-N,2,2-trimethyl-7-[3-(pyrrolidin-1-yl)propoxy]-1H,2H,3H-cyclopenta[c]quinolin-4-amine formate]",0.043 µM
17,"CNc1nc2cc(OCCCN3CCCC3)c(OC)cc2c2c1CCN2 [Example 22, 8-methoxy-N-methyl-7-[3-(pyrrolidin-1-yl)propoxy]-1H,2H,3H-pyrrolo[3,2-c]quinolin-4-amine trifluoroacetate]",0.003 µM
18,"COc1cc2c3c(c(NC(C)C)nc2cc1OCC1CCN(C)C1)CCC3 (stereo not drawn) [Example 11, 8-methoxy-7-[(1-methylpyrrolidin-3-yl)methoxy]-N-(propan-2-yl)-1H,2H,3H-cyclopenta[c]quinolin-4-amine trifluoroacetate]",0.27 µM
19,"COc1cc2c3c(c(N[C@H]4CC[C@H](O)CC4)nc2cc1OCCCN1CCCC1)CCC3 [Example 123, (1R,4R)-4-({8-methoxy-7-[3-(pyrrolidin-1-yl)propoxy]-1H,2H,3H-cyclopenta[c]quinolin-4-yl}amino)cyclohexan-1-ol formate]",0.17 µM
20,"COc1cc2c3c(c(NC(C)C)nc2cc1OCCCN1CCCC1)CCN3 [Example 23, 8-methoxy-N-(propan-2-yl)-7-[3-(pyrrolidin-1-yl)propoxy]-1H,2H,3H-pyrrolo[3,2c]-quinolin-4-amine trifluoroacetate]",0.003 µM
21,"COc1cc2c3c(c(C4CCCC4)nc2cc1OCCCN1CCCC1)CCCCN3 [Example 79, 1-[3-({6-cyclopentyl-10-methoxy-1H,2H,3H,4H,5H-azepino[3,2-c]quinolin-9-yl}oxy)propyl]pyrrolidine triflate]",0.003 µM
22,"COc1cc2c3c(c(N[C@H]4CCC[C@@H]4O)nc2cc1OCCCN1CCCC1)CCC3 [Example 124, (1S,25)-2-({8-methoxy-7-[3-(pyrrolidin-1-yl)propoxy]-1H,2H,3H-cyclopenta[c]quinolin-4-yl}amino)cyclopentan-1-ol formate]",4.7 µM
23,"CCNc1nc2cc(OCCCN3CCCC3)c(OC)cc2c2c1CCC2 [Example 106, N-ethyl-8-methoxy-7-[3-(pyrrolidin-1-yl)propoxy]-1H,2H,3H-cyclopenta[c]quinolin-4-amine trifluoroacetate]",0.013 µM
24,"COc1cc2c3c(cnc2cc1OCCCN1CCCC1)CCCC3 [Example 40, 2-methoxy-3-[3-(pyrrolidin-1-yl)propoxy]-7,8,9,10-tetrahydrophenanthridine trifluoroacetate]",1.3 µM
